Data on 18 molecules can be found in US9815847B2 (Icahn School of Medicine at Mount Sinai, priority 2013, dated 2017).

The test system of one test is K562. In words: Cytotoxicity on K562 cancer cell line. Format: cell-based. As to conditions: Homo sapiens; K562 chronic myelogenous leukemia; 96 h; 0.01-100 μM. As to the method: (§1) The effect of the compounds described herein on tumor cells was determined by the assay described by Latham et al., Oncogene 12:827-837 (1996). Tumor cells K562 (chronic myelogenous leukemia; leukemia cell line +ve for Bcr-Abl) or DU145 (prostate cancer) were plated in 12-well dishes at a cell density of 2.5×10^4 cells per well. The plated cells were treated 24 h. later with a DMSO solution of a compound as described herein at multiple concentrations ranging from 0.01 μM to 100 μM. The plates were examined 96 h. later under an inverted microscope, Olympus CK-2 using a 10× objective, and compound activity was noted by physical observation. When necessary, the total number of viable cells was determined by trypsinizing the wells and counting the number of viable cells, as determined by trypan blue exclusion, using a hemacytometer.

The test system of a further test is DU145. In words: Cytotoxicity on DU145 cancer cell line. Format: cell-based. As to conditions: Homo sapiens, DU-145; DU145 prostate cancer; 96 h; 0.01-100 μM. On the procedure: as §1

Some results are limits rather than exact numbers.

Consider `CNc1nc(Nc2ccc(N3CCOCC3)cc2)ncc1/C=C/S(=O)(=O)c1ccc(F)cc1F` [Compound 15e, (E)-5-{2-[(2,4-Difluorophenyl)sulfonyl]vinyl}-N^4-methyl-N^2-(4-morpholinophenyl)pyrimidine-2,4-diamine], for which the IC50 with K562 and in the test with DU145 was 50 to 100 µM in each case.
Consider `CNc1nc(Nc2ccc(OC)cc2)ncc1/C=C/S(=O)(=O)c1ccc(F)cc1F` [Compound 15f, (E)-5-{2-[(2,4-Difluorophenyl)sulfonyl]vinyl}-N^2-(4-methoxyphenyl)-N^4-methylpyrimidine-2,4-diamine], for which the IC50 in the test on K562 and in the test with DU145 was 25 to 50 µM throughout.
With `CNc1nc(Nc2cc(OC)c(OC)c(OC)c2)ncc1/C=C/S(=O)(=O)c1ccc(F)cc1F` [Compound 15g, (E)-5-{2-[(2,4-Difluorophenyl)sulfonyl]vinyl}-N^4-methyl-N^2-(3,4,5-trimethoxyphenyl)pyrimidine-2,4-diamine], the IC50 (as a rule, the concentration at which inhibition is half-maximal) was 50 to 100 µM with K562 and 1 to 25 µM with DU145.
`CNc1nc(Nc2nc3ccccc3[nH]2)ncc1/C=C/S(=O)(=O)c1ccc(F)cc1F` [Compound 15h, (E)-N^2-(1H-Benzo[d]imidazol-2-yl)-5-{2-[(2,4-difluorophenyl)sulfonyl]vinyl}-N^4-methylpyrimidine-2,4-diamine]: the IC50 in the test with K562 and in the test on DU145 was 1 to 25 µM throughout.
On to `CNc1nc(Nc2ccc3[nH]ncc3c2)ncc1/C=C/S(=O)(=O)c1ccc(F)cc1F` [Compound 15i, (E)-5-{2-[(2,4-Difluorophenyl)sulfonyl]vinyl}-N^2-(1H-indazol-5-yl)-N-methylpyrimidine-2,4-diamine], for which the IC50 in the test on K562 and in the test with DU145 was 1 to 25 µM each time.
Take `COc1ccc(S(=O)(=O)/C=C/c2cnc(Nc3ccc(N4CCN(C)CC4)cc3)nc2NC2CCCC2)cc1` [Compound 15j, (E)-N^4-Cyclopentyl-5-{2-[(4-methoxyphenyl)sulfonyl]vinyl}-N^2-[4-(4-methylpiperazin-1-yl)phenyl]pyrimidine-2,4-diamine]: the IC50 in the test with K562 and in the test on DU145 was 1 to 25 µM throughout.
On to `COc1ccc(S(=O)(=O)/C=C/c2cnc(Nc3ccc4[nH]ccc4c3)nc2NC2CCCC2)cc1` [Compound 15k, (E)-N^4-Cyclopentyl-N^2-(1H-indol-5-yl)-5-{2-[(4-methoxyphenyl)sulfonyl]vinyl}pyrimidine-2,4-diamine], for which the IC50 with K562 and with DU145 was 1 to 25 µM each time.
In the case of `CNc1nc(Nc2ccc(N3CCN(C)CC3)cn2)ncc1/C=C/S(=O)(=O)c1ccc(F)cc1F` [Compound 15l, (E)-5-{2-[(2,4-Difluorophenyl)sulfonyl]vinyl}-N^4-methyl-N^2-[5-(4-methylpiperazin-1-yl)pyridin-2-yl]pyrimidine-2,4-diamine], the IC50 in the test with K562 and with DU145 was 1 to 25 µM in each case.
Turning to `COc1ccc(Nc2ncc(/C=C/S(=O)(=O)c3ccc(OC)cc3)c(NC3CCCC3)n2)cc1` [Compound 15m, (E)-N^4-Cyclopentyl-N^2-(4-methoxyphenyl)-5-{2-[(4-methoxyphenyl)sulfonyl]vinyl}pyrimidine-2,4-diamine], the IC50 in the test on K562 and with DU145 was 1 to 25 µM in each case.
Take `CNc1nc(Nc2ccc3[nH]cnc3c2)ncc1/C=C/S(=O)(=O)c1ccc(F)cc1F` [Compound 15n, (E)-N^2-(1H-Benzo[d]imidazol-5-yl)-5-{2-[(2,4-difluorophenyl)sulfonyl]vinyl}-N^4-methylpyrimidine-2,4-diamine]: the IC50 with K562 and in the test on DU145 was 1 to 25 µM throughout.
Consider `COc1ccc(S(=O)(=O)/C=C/c2cnc(N3CCOCC3)nc2NC2CCCC2)cc1` [Compound 15o, (E)-N-Cyclopentyl-5-{2-[(4-methoxyphenyl)sulfonyl]vinyl}-2-morpholinopyrimidin-4-amine], for which the IC50 in the test on K562 and in the test with DU145 was 1 to 25 µM in each case.
For `O=S(=O)(/C=C/c1cnc(N2CCOCC2)nc1NC1CCCC1)c1ccc(F)cc1N1CCOCC1` [Compound 15p, (E)-N-Cyclopentyl-5-{2-[(4-fluoro-2-morpholinophenyl)sulfonyl]vinyl}-2-morpholinopyrimidin-4-amine], the IC50 with K562 was 50 to 100 µM; in the test with DU145 it was 1 to 25 µM.
For `COc1ccc(S(=O)(=O)/C=C/c2cnc(Nc3ccc(N4CCN(C)CC4)cc3)nc2Nc2ccn(C)n2)cc1` [Compound 15q, (E)-5-{2-[(4-Methoxyphenyl)sulfonyl]vinyl}-N^4-(1-methyl-1H-pyrazol-3-yl)-N^2-[4-(4-methylpiperazin-1-yl)phenyl]pyrimidine-2,4-diamine], the 50% inhibitory concentration (IC50) in the test on K562 was below 1 µM; in the test with DU145, 1 to 25 µM.
The like results for `CN1CCN(c2ccc(Nc3ncc(/C=C/S(=O)(=O)c4ccc(F)cc4F)c(Nc4ccn(C)n4)n3)cc2)CC1` [Compound 15r, (E)-5-{2-[(2,4-Difluorophenyl)sulfonyl]vinyl}-N^4-(1-methyl-1H-pyrazol-3-yl)-N^2-[4-(4-methylpiperazin-1-yl)phenyl]pyrimidine-2,4-diamine] were, in that order, 1 to 25 µM and 1 to 25 µM.
The like results for `Cn1ccc(Nc2nc(Nc3ccc4[nH]ccc4c3)ncc2/C=C/S(=O)(=O)c2ccc(F)cc2F)n1` [Compound 15s, (E)-5-{2-[(2,4-Difluorophenyl)sulfonyl]vinyl}-N^2-(1H-indol-5-yl)-N^4-(1-methyl-1H-pyrazol-3-yl)pyrimidine-2,4-diamine] were, in that order, 1 to 25 µM and 1 to 25 µM.
The like results for `Cn1ccc(Nc2nc(Nc3ccc(N4CCOCC4)cc3)ncc2/C=C/S(=O)(=O)c2ccc(F)cc2F)n1` [Compound 15t, (E)-5-{2-[(2,4-Difluorophenyl)sulfonyl]vinyl}-N-(1-methyl-1H-pyrazol-3-yl)-N^2-(4-morpholinophenyl)pyrimidine-2,4-diamine] were, in that order, 1 to 25 µM and 1 to 25 µM.
Turning to `Cn1ccc(Nc2nc(Nc3ccc4ncccc4c3)ncc2/C=C/S(=O)(=O)c2ccc(F)cc2F)n1` [Compound 15u, (E)-5-{2-[(2,4-Difluorophenyl)sulfonyl]vinyl}-N^4-(1-methyl-1H-pyrazol-3-yl)-N^2-(quinolin-6-yl)pyrimidine-2,4-diamine], the IC50 in the test with K562 and in the test on DU145 was 1 to 25 µM throughout.
Consider `CCOC(=O)/C=C/c1cnc(Nc2ccc(N3CCN(C)CC3)cc2)nc1NC1CCCC1` [Compound 21, (E)-3-[4-(Cyclopentylamino)-2-{[4-(4-methylpiperazin-1-yl)phenyl]amino}pyrimidin-5-yl]acrylic acid ethyl ester], for which the IC50 in the test on K562 is below 1 µM; in the test on DU145, 1 to 25 µM.
